{
  "source": "patent US7264956B2",
  "about": "“Compounds and methods for inhibiting axillary malodour” (Givaudan SA, priority 2001, dated 2007)",
  "key": {"[1]": {"target": "T1, purified enzyme obtained from E.coli Top 10/pBADgIII AMRE (Corynebacterium striatum, UniProt Q8GGD4)", "T1 construct": "made in house; host or cells: E. coli TOP10 (Invitrogen), vector pBADgIIIA, arabinose-induced", "T1 sequence (Q8GGD4 2-400)": "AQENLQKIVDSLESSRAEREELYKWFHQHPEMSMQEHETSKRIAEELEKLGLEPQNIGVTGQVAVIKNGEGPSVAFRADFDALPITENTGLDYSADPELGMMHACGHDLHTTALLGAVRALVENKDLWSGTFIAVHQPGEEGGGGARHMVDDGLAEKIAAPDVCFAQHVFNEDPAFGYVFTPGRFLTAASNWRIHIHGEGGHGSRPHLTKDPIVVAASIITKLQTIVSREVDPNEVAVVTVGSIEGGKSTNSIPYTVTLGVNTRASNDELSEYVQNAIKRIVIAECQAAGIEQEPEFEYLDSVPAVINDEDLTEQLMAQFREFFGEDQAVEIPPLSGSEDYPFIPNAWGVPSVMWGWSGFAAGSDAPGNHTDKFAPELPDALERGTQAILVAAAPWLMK", "assay": "High throughput screening for inhibitors (fluorescamine assay of released L-glutamine)", "assay_type": "biochemical", "settings": "substrate Nα-lauroyl-L-glutamine 0.05 mM; Ki calculated from IC50", "description": "Compounds, which inhibit an enzyme of the present invention reduce the activity of the enzyme and may lead to a significant reduction of the release of malodour acids from odourless fresh sweat. […] The activity of the compounds as inhibitors may be measured in terms of either their IC50 values or their Ki values, both of which measures are well known to the person skilled in the art. As is well known, the IC50 value provides the concentration of an inhibitor needed to reduce enzyme velocity by half at a given substrate concentration. This value is dependent on the affinity of the substrate for the enzyme which is reflected in the value Km of the substrate. In this way, the Ki value may be determined for a given substrate and a given substrate concentration by measuring IC50 and then calculating according to the following formula\nPotential inhibitory compounds were dissolved in Buffer A and aliquots of the solutions of different inhibitors (10 μl) were distributed to individual wells of a white microtiter plate. Purified enzyme obtained from the strain E.coli Top 10/pBADgIII AMRE was diluted in Buffer A (200 pg/ml final concentration) and added to the inhibitory compounds. After 10 min preincubation, the substrate (Nα-lauroyl-L-glutamine) was added to the individual wells to a final concentration of 0.05 mM. After 15 min of incubation, the amino-group of the released L-glutamine was derivatised by adding to each well of the microtiter plate 50 μl of a fluorescamine stock solution (2.5 mM in acetonitrile; fluorescamine obtained from Fluka, Buchs, Switzerland). After 5 min the fluorescence in the wells of the microtiter plates was measured with an excitation wavelength of 360 nm and an emission wavelength of 460 nm. The fluorescence of control wells with enzyme, substrate and DMSO only was then compared to the fluorescence in wells containing potential inhibitors. By varying the inhibitor concentration, the IC50 value for each compound was determined, and the Ki values were calculated."}, "[2]": {"target": "T2, purified enzyme from Corynebacterium striatum A×20 (Corynebacterium striatum, UniProt Q8GGD4)", "T2 construct": "an enzyme may be isolated from cellular extracts obtained from wild-type bacterial strains; endogenous in cells; host or cells: Corynebacterium striatum Ax20 (DSM 14267), mechanically disrupted; crude extract or chromatographically purified enzyme", "T2 sequence (Q8GGD4 2-400)": "as above", "assay_type": "biochemical", "settings": "for enzyme activity after incubation with serin-/cystein protease inhibitor: purified enzyme", "method": "Corynebacterium striatum A×20 was selected to isolate and purify the enzyme responsible for the cleavage of the precursor Nα-3-hydroxy-3-methyl-hexanoyl-L-glutamine. The strain was grown during 48 h in Mueller-Hinton broth amended with 0.01% Tween 80. A total volume of 2 L of culture was harvested by centrifugation. The pellet was washed in Buffer A (50 mM NaCl; 50 mM NaH2PO4/K2HPO4 buffer at pH 7) and this buffer was used throughout the whole purification procedure. The cells were disrupted mechanically by vortexing them with glass beads (425–600 μm, Sigma, St-Louis, USA) during 30 min at maximal speed. The crude cell lysate was then fractionated by precipitation with an increasing concentration of (NH4)2SO4. […] This enriched sample was dissolved in Buffer A and then sequentially passed over four chromatography columns: DEAE Sepharose CL-6B anion exchange resin (Pharmacia, Uppsala, Sweden; elution with a linear gradient from 0 to 800 mM KCI); Phenyl-Sepharose hydrophobic interaction resin (Pharmacia; elution with a linear gradient from 1000 mM to 0 mM of (NH4)2SO4; Mono Q strong anion exchange column on the FPLC system (Pharmacia; elution with a gradient from 0 to 800 mM KCl) and finally Mono P weak anion exchange column on the FPLC (elution with a gradient from 0–800 mM KCl in a 50 mM Bis-Tris buffer instead of Buffer A). […] Finally, the enzyme was subjected to LC-ESI-MS/MS analysis after tryptic digestion and to analysis of its N-terminal amino acid sequence."}, "[3]": {"system": "other Corynebacteria and some Staphylococci", "assay": "Release of lauric acid from Nα-lauroyl-L-glutamine by axilla bacteria", "assay_type": "cell-based", "settings": "same experiment as Table 1, Nα-lauroyl-L-glutamine as substrate", "method": "The axillary flora of 8 panellists was isolated with the detergent-scrub method: A 6 cm^2 area of the axilla was scrubbed with a phosphate buffer at pH 7 containing 1% Tween 80. The samples were spread-plated on tryptic soy agar amended with 5 g/L of Tween 80 and 1 g/L of lecithin. Single isolates obtained after 48 h incubation were subcultured and characterised. A total of 24 individual strains were identified based on colony and cell morphology, gram-reaction, lipophilic growth, lipase reaction and API identification kits (bioMerieux, France; coryneforms with the API coryne kit and cocci with the ID Staph 32 kit). The strains were grown overnight in a liquid medium (Mueller-Hinton amended with 0.01% Tween 80), harvested by centrifugation and resuspended to a final OD600 of 1 in a semi-synthetic medium (Per litre: 3 g KH2PO4, 1.9 g K2HPO4, 0.2 g yeast extract, 0.2 g MgSO4, 1.4 g NaCl, 1 g NH4Cl, 10 mg MnCl2, 1 mg Fe3Cl2, 1 mg CaCl2). […] The Corynebacteria which are able to conduct this biochemical reaction may be found in the group of the lipophilic and in the group of the non-lipophilic Corynebacteria. Therefore, a specific enzyme only present in some bacterial strains seems to be responsible for this cleavage. Since it releases axilla malodour the putative enzyme was named AMRE, which stands for ‘axillary malodour releasing enzyme’. […]"}, "[4]": {"target": "T3, enzyme extracted from Corynebacterium striatum A×20 (AMRE, Nα-acyl-glutamine-aminoacylase) (Corynebacterium striatum, UniProt Q8GGD4)", "T3 construct": "an enzyme may be isolated from cellular extracts obtained from wild-type bacterial strains; endogenous in cells; host or cells: Corynebacterium striatum Ax20 (DSM 14267), mechanically disrupted; crude extract or chromatographically purified enzyme", "T3 sequence (Q8GGD4 2-400)": "as above", "assay": "Substrate specificity of the enzyme (capillary GC of released acid or alcohol)", "assay_type": "biochemical", "settings": "for Cleavage by enzyme: 500 ppm in Buffer A, 24 h incubation", "method": "To understand in detail the structural requirements of substrates, the enzyme extracted from Corynebacterium striatum A×20 was incubated with a wide variety of said compounds related to the originally isolated Nα-3-methyl-3-hydroxy-hexanoyl-L-glutamine present in sweat. Each compound was used at a concentration of 500 ppm in Buffer A, and analysis of released acid or alcohol was done by capillary GC after 24 h of incubation. First, different modifications at the N-terminus were tested."}, "[5]": {"target": "T4, enzyme heterologously expressed in E. coli TOP10 (pBADgIIIAMRE) (Corynebacterium striatum, UniProt Q8GGD4)", "T4 construct": "made in house; host or cells: E. coli TOP10 (Invitrogen), vector pBADgIIIA, arabinose-induced", "T4 sequence (Q8GGD4 2-400)": "as above", "assay": "Enzyme assay with extracts of E. coli expressing the enzyme (release of lauric acid)", "assay_type": "biochemical", "settings": "500 ppm substrate", "description": "The full-length sequence of the open reading frame coding for the enzyme was amplified with PCR from chromosomal DNA of A×20 using specific primers (SEQ ID NO 14 and SEQ ID NO 15). The amplified DNA fragment was then digested with the restriction enzymes NcoI and Hind III It was then ligated into the vector pBADIIIA (Invitrogen, Groningen, The Netherlands) pre-digested with the same enzymes. The resulting plasmid pBADgIIIAMRE was transformed into the host strain E. coli TOP10 (Invitrogen). This strain was grown in LB broth until it reached an optical density of about 0.5 at 600 nm. The culture was induced with arabinose (0.2% final concentration) incubated for 4 h, harvested by centrifugation and disrupted by ultrasonication. Enzyme assays with Na-lauryl-Glutamine as substrate were performed in Buffer A with an incubation time of 1 h and a substrate concentration of 500 ppm. Table 3 gives the activity of extracts obtained from wild-type cells and from extracts of the induced and non-induced modified strains expressing the enzyme."}, "[6]": {"target": "T5, isolated enzyme (extracts of A×20) (Corynebacterium striatum, UniProt Q8GGD4)", "T5 construct": "an enzyme may be isolated from cellular extracts obtained from wild-type bacterial strains; endogenous in cells; host or cells: Corynebacterium striatum Ax20 (DSM 14267), mechanically disrupted; crude extract or chromatographically purified enzyme", "T5 sequence (Q8GGD4 2-400)": "as above", "assay": "Low throughput screening for inhibitors, isolated enzyme (released lauric acid by GC)", "assay_type": "biochemical", "settings": "substrate Nα-lauroyl-L-glutamine, 2 h", "method": "(§1) Extracts of A×20 were prepared by mechanical disruption as described in Example 3. The extract (0.5 ml corresponding to 2 ml initial cell culture) was added to 3.5 ml of Buffer A and amended with 40 μl of substrate (Nα-lauroyl-L-glutamine, 5% stock solution in methanol). Parallel samples were additionally amended with potential inhibitory compounds to give a final concentration of 0.5 and 5 mM. The samples were incubated for 2 h and then extracted with MTBE and HCI and analysed for released lauric acid using capillary GC. By comparing the samples containing potential inhibitory compounds with control samples with enzyme and substrate only, the inhibition (%) was calculated. The same assay was also made either with purified enzyme from the wild-type strain (see example 3) or with extracts from E.coli Top 10/pBADgIII AMRE induced with arabinose (see example 6). Furthermore, the same assay was made using stationary phase living cells of A×20 instead of an isolated enzyme preparation. In this case successful uptake of the inhibitors into the cells and inhibition are measured simultaneously."}, "[7]": {"target": "T6, enzyme activity in living cells of A×20 (Corynebacterium striatum, UniProt Q8GGD4)", "T6 construct": "stationary phase living cells of A×20; endogenous in cells; host or cells: Corynebacterium striatum Ax20, stationary-phase living cells", "T6 sequence (Q8GGD4 2-400)": "as above", "assay": "Low throughput screening for inhibitors, stationary phase living cells of A×20", "assay_type": "cell-based", "settings": "5 mM; substrate Nα-lauroyl-L-glutamine, 2 h", "method": "as §1"}},
  "note": "Entries after “also recorded” stand apart in the source; their conditions may differ. Where two headings read alike, the source gives them in different places.",
  "data": [
    {"smiles": "NC(=O)CC[C@H](NC(=O)[C@@H](S)Cc1ccccc1)C(=O)O", "note": "[Compound 5a]", "values": [
      {"measurement": "Ki", "setting": "[1]", "value": "54 ± 1", "unit": "nM"}
    ]},
    {"smiles": "CC(C)C[C@H](S)C(=O)N[C@@H](CCC(N)=O)C(=O)O", "note": "[Compound 5b]", "values": [
      {"measurement": "Ki", "setting": "[1]", "value": "130 ± 10", "unit": "nM"}
    ]},
    {"smiles": "CCCC[C@H](S)C(=O)N[C@@H](CCC(N)=O)C(=O)O", "note": "[Compound 5c]", "values": [
      {"measurement": "Ki", "setting": "[1]", "value": "410 ± 20", "unit": "nM"}
    ]},
    {"smiles": "NC(=O)CCC(CP(=O)(O)Cc1ccccc1)C(=O)O", "note": "(stereo not shown) [Compound 8a]", "values": [
      {"measurement": "Ki", "setting": "[1]", "value": "50 ± 3", "unit": "nM"}
    ]},
    {"smiles": "CC(C)CP(=O)(O)CC(CCC(N)=O)C(=O)O", "note": "(stereo not shown) [Compound 8b]", "values": [
      {"measurement": "Ki", "setting": "[1]", "value": "58 ± 4", "unit": "nM"}
    ]},
    {"smiles": "CCCCP(=O)(O)CC(CCC(N)=O)C(=O)O", "note": "(stereo not shown) [Compound 8c]", "values": [
      {"measurement": "Ki", "setting": "[1]", "value": "110 ± 10", "unit": "nM"}
    ]},
    {"smiles": "O=C(O)CN(CCN(CC(=O)O)CC(=O)O)CC(=O)O", "note": "[EDTA]", "values": [
      {"measurement": "inhibition of the enzyme", "setting": "[2]", "value": "completely inhibited"}
    ]},
    {"smiles": "CCCCCCCCCCCC(=O)N[C@@H](CCC(N)=O)C(=O)O", "note": "[Nα-lauroyl-L-glutamine]", "values": [
      {"measurement": "release of lauric acid from substrate by axilla bacteria", "setting": "[3]", "value": "can release lauric acid"},
      {"measurement": "cleavage of substrate by enzyme (in words)", "setting": "[4]", "value": "able to be cleaved; also recorded: can cleave"}
    ]},
    {"smiles": "O=S(=O)(F)Cc1ccccc1", "note": "[PMSF, Phenylmethylsulfonylfluoride]", "values": [
      {"measurement": "enzyme activity after incubation with serin-/cystein protease inhibitor", "setting": "[2]", "value": "retained all its activity"}
    ]},
    {"smiles": "NCCc1ccc(S(=O)(=O)F)cc1", "note": "[Pefabloc SC, 4-(2-aminoethyl)-benzenesulfonylfluoride]", "values": [
      {"measurement": "enzyme activity after incubation with serin-/cystein protease inhibitor", "setting": "[2]", "value": "retained all its activity"}
    ]},
    {"smiles": "[Cl-].[Cl-].[Zn+2]", "note": "[ZnCl2]", "values": [
      {"measurement": "reversal of EDTA / o-phenantrolin inhibition", "setting": "[2]; addition of 1 mM", "value": "could be reversed"}
    ]},
    {"smiles": "CCCCCCCCCCCC(=O)N[C@@H](CCC(N)=O)C(=O)O", "note": "[compound 2, Nα-lauroyl-L-glutamine]", "values": [
      {"measurement": "release of lauric acid from Lauryl-Glutamine, 1 h incubation", "setting": "[5]; extract of E. coli Top 10 (wild-type), 4 h after induction", "value": "below detection"},
      {"measurement": "release of lauric acid from Lauryl-Glutamine, 1 h incubation", "setting": "[5]; extract of E. coli Top 10/pBADgIIIAMRE not induced", "value": 23, "unit": "ppm"},
      {"measurement": "release of lauric acid from Lauryl-Glutamine, 1 h incubation", "setting": "[5]; extract of E. coli Top 10 induced, 4 h after induction", "value": 329, "unit": "ppm"},
      {"measurement": "Cleavage by enzyme", "setting": "[4]", "value": "+++ (+++ cleavage over 50%)"}
    ]},
    {"smiles": "NC(=O)C[C@H](NC(=O)OCc1ccccc1)C(=O)O", "note": "[compound 12, Carbobenzyloxy-L-asparagine]", "values": [
      {"measurement": "melting point", "value": "102 to 104", "unit": "°C"},
      {"measurement": "Cleavage by enzyme", "setting": "[4]", "value": "−"}
    ]},
    {"smiles": "c1cnc2c(c1)ccc1cccnc12", "note": "[o-phenantrolin]", "values": [
      {"measurement": "% inhibition of the isolated enzyme", "setting": "[6]; 0.5 mM", "value": 100, "unit": "%"},
      {"measurement": "% inhibition of the isolated enzyme", "setting": "[6]; 5 mM", "value": 100, "unit": "%"},
      {"measurement": "% inhibition of enzyme activity in living cells", "setting": "[7]", "value": 90.3, "unit": "%"},
      {"measurement": "inhibition of the enzyme", "setting": "[2]; 1 mM", "value": "completely inhibited"}
    ]}
  ]
}
